Measured values reported in ChEMBL document CHEMBL1201862, “PubChem BioAssay data set” (2004).
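Method: 48-hour compound exposure of cells in 96-well plates, five concentrations, linear interpolation of endpoints. GI50 is the concentration that inhibits growth by half.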 Active and inactive are the calls of the source. No stated cut-off is given here; in the data, active = GI50 up to about 1.1 µM and inactive = higher.

Assays:
Assay in all cases: NCI anticancer screen, dose series, 48 h
CAKI-1 = system: CAKI-1
HCC 2998 = system: HCC 2998
PC-3 = system: PC-3
MDA-N = system: MDA-N
RPMI-8226 = system: RPMI-8226
CCRF-CEM = system: CCRF-CEM
TK-10 = system: TK-10
K562 = system: K562
SK-MEL-28 = system: SK-MEL-28
Hs-578T = system: Hs-578T
SK-OV-3 = system: SK-OV-3
NCI-H226 = system: NCI-H226
EKVX = system: EKVX
HL-60 = system: HL-60
M14 = system: M14
MDA-MB-435 = system: MDA-MB-435
SNB-19 = system: SNB-19
HT-29 = system: HT-29
SF-539 = system: SF-539
MCF7 = system: MCF7

| SMILES | GI50 (CAKI-1) | GI50 (HCC 2998) | GI50 (PC-3) | GI50 (MDA-N) | GI50 (RPMI-8226) | GI50 (CCRF-CEM) | GI50 (TK-10) | GI50 (K562) | GI50 (SK-MEL-28) | GI50 (Hs-578T) | GI50 (SK-OV-3) | GI50 (NCI-H226) | GI50 (EKVX) | GI50 (HL-60) | GI50 (M14) | GI50 (MDA-MB-435) | GI50 (SNB-19) | GI50 (HT-29) | GI50 (SF-539) | GI50 (MCF7) |
| --- | --- | --- | --- | --- | --- | --- | --- | --- | --- | --- | --- | --- | --- | --- | --- | --- | --- | --- | --- | --- |
| C=C1C(=O)OC2CC(C)C3C=CC(=O)C3CC12 (centres undefined) | 2.17 µM (inactive) | 4.73 µM (inactive) | 2.37 µM (inactive) | 2.07 µM (inactive) | 1.71 µM (inactive) | 0.428 µM (active) | 3.16 µM (inactive) | 1.46 µM (inactive) | 1.68 µM (inactive) | 1.85 µM (inactive) | 16.1 µM (inactive) | 2.64 µM (inactive) | 12.1 µM (inactive) | 0.891 µM (active) | 1.62 µM (inactive) | 3.31 µM (inactive) | 15.4 µM (inactive) | 1.72 µM (inactive) | 2.08 µM (inactive) |  |
| CC(Br)CN1CCOCC1 (centres undefined) | > 100 µM (inactive) | > 100 µM (inactive) | > 100 µM (inactive) |  | > 100 µM (inactive) |  | > 100 µM (inactive) | 50 µM (inactive) | > 100 µM (inactive) | > 100 µM (inactive) | > 100 µM (inactive) | > 100 µM (inactive) | > 100 µM (inactive) | 10.5 µM (inactive) | > 100 µM (inactive) | > 100 µM (inactive) | > 100 µM (inactive) | > 100 µM (inactive) | > 100 µM (inactive) | > 100 µM (inactive) |
| CCC(C)C1=C(O)[N+]2([O-])Oc3ccc(-c4c(O)c(O)c(-c5ccc(O)cc5)c(OC(C)=O)c4OC(C)=O)cc3OC2(C(C)CC)C(=O)N1O (centres undefined) | > 50 µM (inactive) | 0.005 µM (active) | > 50 µM (inactive) | 17.1 µM (inactive) | > 50 µM (inactive) | 1.88 µM (inactive) | > 50 µM (inactive) | 35.4 µM (inactive) | > 50 µM (inactive) |  | > 50 µM (inactive) | > 50 µM (inactive) | 39.5 µM (inactive) | > 50 µM (inactive) | > 50 µM (inactive) | 16.8 µM (inactive) | > 50 µM (inactive) | > 50 µM (inactive) | > 50 µM (inactive) | > 50 µM (inactive) |
| Nc1n2nc(-c3ccccc3)sc2n[n+]1CC(=O)c1ccccc1 | 12.3 µM (inactive) | 12.5 µM (inactive) | 11 µM (inactive) |  | 12.5 µM (inactive) | 3.07 µM (inactive) | 27.4 µM (inactive) | 3.09 µM (inactive) | 25.4 µM (inactive) | 47.6 µM (inactive) | 16.7 µM (inactive) | 16.7 µM (inactive) | 31.6 µM (inactive) |  | 10.1 µM (inactive) | 2.72 µM (inactive) | 21.7 µM (inactive) | 9.53 µM (inactive) | 6.78 µM (inactive) | 5.37 µM (inactive) |
